In patent US10329304B2, “Compounds and methods for inhibition of hedgehog signaling and phosphodiesterase” (Vanderbilt University, priority 2014, dated 2019):
Like-named read-outs stand apart in the source and are kept apart here.

How the values were obtained:
PDE4D2 = target: T1, PDE4D2 (Homo sapiens, UniProt Q08499); assay: In vitro PDE assay; assay type: biochemical; details: Table 9A
T1 construct: purchased BPS Biosciences (San Diego, Calif.)
Protocol: (§1) In vitro PDE profiling and dose-response assays were performed by BPS Biosciences (San Diego, Calif.). Kinetic Mechanism of inhibition studies were conducted by Millipore (St. Louis, Mo.). In brief, the PDE assay measures fluorescent polarization of FAM-AMP as FAM-cAMP is converted to FAM-AMP by PDE), the binding agent.
(§2) A series of dilutions of the test compound were prepared with 10% DMSO in assay buffer and 5 μl of the dilution was added to a 50 μl reaction so that the final concentration of DMSO is 1% in all of reactions. All of the PDE enzymatic reactions were conducted in duplicate at room temperature for 60 minutes in a 50 μl mixture containing PDE assay buffer (10 mM Tris-HCl, pH7.4, 10 mM MaCl2, 0.05% Tween 20), 100 nM FAM-cAMP, a PDE enzyme and a test compound.
(§3) After the enzymatic reaction, 100 μl of a binding solution (1:100 dilution of the binding agent, which contains the nano beads that recognize FAM-AMP, with the binding agent diluent) was added to each reaction and the reaction was performed at room temperature for 60 minutes. Fluorescence intensity was measured at an excitation of 485 nm and an emission of 528 nm using a Tecan Infinite M1000 microplate reader. Assays done by Millipore were conducted similarly with changes noted below: […]

PDE4D3 = target: T2, PDE4D3 (Homo sapiens, UniProt Q08499); assay: In vitro PDE assay; assay type: biochemical
T2 construct: purchased BPS Biosciences (San Diego, Calif.); kinetic studies by Millipore (St. Louis, Mo.)
Protocol: as §1, §2, §3

Gli1 mRNA = assay: Hh % Inh.: SAG-induced Gli1 expression in C3H10T½ cells (qPCR); assay type: cell-based; details: Mus musculus, C3H 10T1/2, SAG-induced (100 nM), 24 hours
Protocol: Compounds are dosed from 10 mM DMSO stock solutions, and mRNA is isolated after 24 hours of compound treatment. mRNA is reverse transcribed to produce cDNA which is quantified by quantitative polymerase chain reaction (qPCR) in triplicate and levels are normalized to GAPDH levels. Data is presented as percent inhibition compared to positive control (SAG).

[1] = tested on: Hedgehog signaling (TM3-Gli-Luc); assay: TM3-Gli-Luc luciferase reporter assay stimulated with 20 nM SAG; assay type: cell-based
Method in brief: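 TM3-Gli-Luc cells on 0.1% gelatin in DMEM/F12 with 2.5% FBS, treated 48 h with compound plus 20 nM SAG. Steady-Glo luminescence normalized to CellTiter-Glo viability, DMSO-only (no SAG) background subtracted, percent of SAG control. EC50 averaged from ≥2 independent days ±SEM.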

[2] = tested on: Hedgehog signaling (Gli-Luc reporter); assay: Hh Gli-Luciferase reporter assay in Shh-Light2 cells; assay type: cell-based, mouse; details: Mus musculus, Shh Light2, read-out: Shh Light2 Luc EC50
Protocol: For Hh signaling assays, Shh-Light2 cells stably transfected with Gli-Luciferase reporter construct were used along with Shh-conditioned media, as previously described^7. Alternatively, 3 μM purmorphamine or 20 nM Smoothened agonist (SAG) (Santa Cruz Biotechnology, Santa Cruz, Calif.) was used to induce Hh signaling. Reporter cells were seeded in 96-well plates and incubated overnight with the various concentrations of eggmanone and Shh-conditioned media. To assess the effects of overexpression of Gli-2, PDE4D3 and DN-PDE4D3 on Hh signaling, mammalian expression vectors containing these constructs were transfected into Shh-Light2 cells in 96-well plates using Fugene6 (Roche), according to manufacturer's instructions. The transfected or Shh-stimulated cells were incubated overnight with the various concentrations of compound. The cells were then lysed, and cell extracts were subjected to Steady-Glo luciferase assay (Promega) according to manufacturer's instructions. The results were normalized to cell titer, as determined using Cell Titer-Glo luminescence assay (Promega).

B16F11 = assay: Cell viability assay (CellTiter-Blue, 72 hr); assay type: cell-based, Mouse; details: Mus musculus, B16-F10; Table 10; read-out: CELL KILLING EC50 (μM) Melanoma B16F10
Protocol: (§4) Cancer cell lines were seeded in 96 well tissue culture plate at a low density (10,000 cells per well) and treated with varying concentrations of Eggmanone. After 72 hr incubation, CellTiter-Blue Cell Viability Assay (Promega, Madison, Wis.) was then performed according to manufacturer's protocol. Absorbance was then measured in a Modulus Microplate reader (Promega, Madison, Wis.) at 590 nm and compared to cells treated with DMSO.
as §4, with “density” for “density (10,000 cells per well)”, “compounds identified in Table 7.” for “Eggmanone.”

DU145 = assay: Cell viability assay (CellTiter-Blue, 72 hr); assay type: cell-based, Human; details: DU-145; human cancer cells; read-out: CELL KILLING EC50 (μM) Prostate DU145
Protocol: as §4
as §4, with “density” for “density (10,000 cells per well)”, “compounds identified in Table 7.” for “Eggmanone.”

DaoY = assay: Cell viability assay (CellTiter-Blue, 72 hr); assay type: cell-based, Human; details: Daoy; human cancer cells; read-out: CELL KILLING EC50 (μM) Medulloblastoma DaoY
Protocol: as §4
as §4, with “density” for “density (10,000 cells per well)”, “compounds identified in Table 7.” for “Eggmanone.”

HCT116 = assay: Cell viability assay (CellTiter-Blue, 72 hr); assay type: cell-based, Human; details: HCT-116; human cancer cells; read-out: CELL KILLING EC50 (μM) Colon HTC116
Protocol: as §4
as §4, with “density” for “density (10,000 cells per well)”, “compounds identified in Table 7.” for “Eggmanone.”

HeLa = assay: Cell viability assay (CellTiter-Blue, 72 hr); assay type: cell-based, Human; details: human cancer cells, read-out: CELL KILLING EC50 (μM) Cervix HeLa
Protocol: as §4
as §4, with “density” for “density (10,000 cells per well)”, “compounds identified in Table 7.” for “Eggmanone.”

MDA-MB- 231 = assay: Cell viability assay (CellTiter-Blue, 72 hr); assay type: cell-based, Human; details: MDA-MB-231; human cancer cells; read-out: CELL KILLING EC50 (μM) Breast MDA-231
Protocol: as §4
as §4, with “density” for “density (10,000 cells per well)”, “compounds identified in Table 7.” for “Eggmanone.”

RKO = assay: Cell viability assay (CellTiter-Blue, 72 hr); assay type: cell-based, Human; details: RKO; human cancer cells; read-out: CELL KILLING EC50 (μM) Colon RKO
Protocol: as §4
as §4, with “density” for “density (10,000 cells per well)”, “compounds identified in Table 7.” for “Eggmanone.”

RWGT2 = assay: Cell viability assay (CellTiter-Blue, 72 hr); assay type: cell-based, Human; details: human cancer cells; read-out: CELL KILLING EC50 (μM) Lung Squam, NSCLC RWGT2
Protocol: as §4
as §4, with “density” for “density (10,000 cells per well)”, “compounds identified in Table 7.” for “Eggmanone.”

SW480 = assay: Cell viability assay (CellTiter-Blue, 72 hr); assay type: cell-based, Human; details: SW480; human cancer cells; read-out: CELL KILLING EC50 (μM) Colon SW480
Protocol: as §4
as §4, with “density” for “density (10,000 cells per well)”, “compounds identified in Table 7.” for “Eggmanone.”

MCF7 = assay: Cell viability assay (CellTiter-Blue, 72 hr); assay type: cell-based; details: MCF7; human cancer cells; read-out: CELL KILLING EC50 (μM) Breast MCF7
Protocol: as §4
as §4, with “density” for “density (10,000 cells per well)”, “compounds identified in Table 7.” for “Eggmanone.”

PC3 = assay: Cell viability assay (CellTiter-Blue, 72 hr); assay type: cell-based; details: PC-3; human cancer cells; read-out: CELL KILLING EC50 (μM) Prostate PCx3
Protocol: as §4

H82 = assay: Cell killing EC50 in H82 lung cancer cells (Table 10); assay type: cell-based; details: human cancer cells; for EC50: NCI-H82
Protocol: It is anticipated that compounds disclosed herein could serve as an anti-tumor, anti-angiogenic, anti-metastatic, agent in the treatment of cancer. To this end, a series of clinically relevant cancer lines were assayed and the cell-killing EC50s for compounds according to the subject matter disclosed herein are provided in Table 10.

T2 sequence (Q08499 1-673 isoform Q08499-2): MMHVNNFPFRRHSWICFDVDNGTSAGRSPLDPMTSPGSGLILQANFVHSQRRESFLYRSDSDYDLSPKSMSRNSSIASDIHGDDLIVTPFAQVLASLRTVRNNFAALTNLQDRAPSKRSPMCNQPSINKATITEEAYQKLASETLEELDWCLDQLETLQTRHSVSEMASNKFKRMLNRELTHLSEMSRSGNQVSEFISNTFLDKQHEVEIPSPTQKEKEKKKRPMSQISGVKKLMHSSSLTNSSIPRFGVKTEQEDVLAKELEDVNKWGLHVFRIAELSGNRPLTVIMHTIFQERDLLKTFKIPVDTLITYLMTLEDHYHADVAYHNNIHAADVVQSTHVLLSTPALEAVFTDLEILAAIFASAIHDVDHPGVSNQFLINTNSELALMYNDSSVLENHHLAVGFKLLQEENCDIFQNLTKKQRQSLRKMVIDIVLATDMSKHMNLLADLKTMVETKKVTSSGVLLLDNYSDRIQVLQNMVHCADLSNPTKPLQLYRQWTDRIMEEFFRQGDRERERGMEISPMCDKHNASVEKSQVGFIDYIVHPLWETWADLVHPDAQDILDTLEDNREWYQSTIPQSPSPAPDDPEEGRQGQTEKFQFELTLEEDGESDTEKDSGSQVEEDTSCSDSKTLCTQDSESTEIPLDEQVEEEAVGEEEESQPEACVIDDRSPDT
T1 sequence (Q08499 303-809): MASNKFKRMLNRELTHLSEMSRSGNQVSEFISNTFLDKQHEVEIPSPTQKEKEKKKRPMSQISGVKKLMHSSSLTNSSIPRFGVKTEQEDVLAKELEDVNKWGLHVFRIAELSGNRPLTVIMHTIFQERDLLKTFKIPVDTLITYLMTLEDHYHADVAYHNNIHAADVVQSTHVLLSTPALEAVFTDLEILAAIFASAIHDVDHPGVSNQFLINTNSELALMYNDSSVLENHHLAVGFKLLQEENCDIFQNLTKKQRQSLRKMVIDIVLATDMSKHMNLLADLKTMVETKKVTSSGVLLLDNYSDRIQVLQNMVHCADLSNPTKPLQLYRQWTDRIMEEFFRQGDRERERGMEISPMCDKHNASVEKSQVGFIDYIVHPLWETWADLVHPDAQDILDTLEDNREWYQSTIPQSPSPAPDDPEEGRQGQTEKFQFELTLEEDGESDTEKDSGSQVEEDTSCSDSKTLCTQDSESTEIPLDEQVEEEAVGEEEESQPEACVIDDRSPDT

SMILES | IC50 (PDE4D2) | IC50 (PDE4D3; Table 9A) | EC50 (DU145) | EC50 (DaoY) | EC50 (HeLa) | EC50 (MDA-MB- 231) | EC50 (RKO) | EC50 (RWGT2) | EC50 (SW480) | EC50 (MCF7) | EC50 (PC3) | other results
O=C(CSc1nc2sc3c(c2c(=O)n1-c1ccccc1)CCCC3)c1cccs1 [JEH-3-058-1] | 45 µM | 14 µM |  |  |  |  |  |  |  |  |  | inhibition at 1 µM (Gli1 mRNA; 1 pM [sic], read-out: C3H10T1/2 qPCR, Gh1 mRNA % Inh., 1 pM): 12%; inhibition at 10 µM (Gli1 mRNA; 10 pM [sic], read-out: C3H10T1/2 qPCR, Gh1 mRNA % Inh., 10 pM): 85.3%; EC50 ([1]; Table 9A, read-out: TM3 G8 Luciferase EC 50): 12.6 µM
C=C(C)Cn1c(SCC(=O)N2Cc3ccccc3C2)nc2sc3c(c2c1=O)CCCC3 [Formula 1KMT] | 46 µM | 30 µM | 32.4 µM | 58.2 µM | 49.7 µM | 68.3 µM | 75.6 µM | 51.1 µM | 4.89 µM | 1.08 µM | 74 µM | EC50 ([2]; Table 9A): > 20 µM; EC50 (B16F11): 61.7 µM; EC50 (HCT116): 89.2 µM; CELL KILLING EC50 (μM) Lung H82 (H82): UnCh
C=CCn1c(SCC(=O)c2ccncc2)nc2sc3c(c2c1=O)CCCC3 [Formula 1KMH] | 5 µM | 8.2 µM |  |  |  |  |  |  |  |  |  | 
C=C(C)Cn1c(SCC(=O)N2CCCC[C@H]2C)nc2sc3c(c2c1=O)CCCC3 [Formula 1ANQ] | 1.2 µM | 1.7 µM |  |  |  |  |  |  |  |  |  | TM3 G8 Luciferase % Inh., 0.5 pM ([1]; 0.5 pM as printed): 17.4%
C=CCn1c(SCC(=O)N2CCCC[C@H]2C)nc2sc3c(c2c1=O)CCCC3 [Formula 1KMR] | 7.6 µM | 11 µM |  |  |  |  |  |  |  |  |  | 
C=CCn1c(SCC(=O)c2ccccc2)nc2sc(CC)cc2c1=O [HI630] |  |  | > 100 µM | > 100 µM | > 100 µM | 23.1 µM | 100 µM | 44.4 µM | 182 µM | > 100 µM | > 100 µM | EC50 ([2]; Table 9B): > 10 µM; IC50 (PDE4D3; Table 9B): 6 µM; EC50 (H82): > 100 µM
C=C(C)Cn1c(SCC(=O)c2ccc(F)cc2)nc2sc3c(c2c1=O)CCCC3 [HI0863] |  |  | 2.38 µM | 39.8 µM | 12.2 µM | 3.12 µM | 42.8 µM | 38.8 µM | 5.4 µM | > 100 µM | 47.7 µM | EC50 ([2]; Table 9B): 2.44 µM; EC50 (B16F11): 4.46 µM; EC50 (HCT116): 0.078 µM; EC50 (H82): > 100 µM
C=CCn1c(SCC(=O)N2Cc3ccccc3C2)nc2sc3c(c2c1=O)CCCC3 [Formula 1KYW] | > 100 µM | > 100 µM |  |  |  |  |  |  |  |  |  | 
